The source of these data is patent US20250041209A1, “THERMOSENSITIVE MODIFIED CHITIN SPONGE DRUG-LOADED IMPLANTED SUSTAINED-RELEASE SYSTEM, PREPARATION METHOD THEREFORE, AND USE THEREOF” (priority 2022, published 2025).

The test system of the experiment is cutaneous trunci muscle reflex. Description: guinea pig pin-prick assay, local anesthetic efficacy of subcutaneously implanted sponges. In kind it is in vivo. The conditions noted are these: subcutaneous implant (sponge about 0.5 g) or 0.5 mL solution injected, n=6. An excerpt: To evaluate in vivo the local anesthetic efficacy of the drug-loaded implanted thermosensitive hydroxypropyl chitin sponges prepared in Example 1, guinea pig pin-prick assay was employed in this invention. Guinea pigs (around 300 g) were induced and maintained with isoflurane. Then the left backs of guinea pigs were shaved before treatment. One longitudinal skin incision with 1.5 cm in length was made by a scalpel at 2 cm left of ridge midline on the back of the guinea pig. Subsequently, one cuboid sponge about 0.5 g (1 cm×1 cm×0.5 cm) was put right in the middle of the incision below the skin. The incision was finally stitched up. 36 animals were randomly divided into six experimental groups with each of 6: group 1: BPV-loaded 0.8B %-HPCH (3.6 wt %) sponge, group 2: 0.8B %-collagen/HPCH (0.6/3.0 wt %) sponge, group 3: 1.2B %-HPCH (3.6 wt %) sponge, group 4: 2.4B %-HPCH (3.6 wt %) sponge, 0.8%-BPV group 5 (0.8 wt % BPV solution) and sham-operated group 6. As for sham-operated group, the incision was made and stitched up without placing a sponge. For BPV solution group, a volume of 0.5 mL 0.8% BPV solution was injected subcutaneously near the skin incision using 30-gage hypodermic needle. […] The nociceptive blockade score (N %) was calculated as following equation: N %=n/8×100%. […]

The structures appear in SMILES notation. Where a name gives a salt, the structure may show the parent alone.

On to `CCCCN1CCCCC1C(=O)Nc1c(C)cccc1C` (stereo not shown) [0.8%-BPV, bupivacaine hydrochloride], for which the “effective duration of blockade (time with nociceptive blockade score≥50%)” value worked out at 1 h.
